How the values were obtained:
Assay type in all cases: physicochemical
[1] = Dynamic vapor sorption (DVS) hygroscopicity
Method: Dynamic vapor sorption (DVS) was used to investigate hygroscopicities of an active pharmaceutical ingredient in different crystal forms.
Determination method: • instrument: dynamic vapor sorption analyzer; temperature: 25°C; protective gas and flow rate: N2, 200 mL/min; • dm/dt: 0.002%/min; RH range: 0%RH-100%RH; cycle: 1 full cycle.

[2] = Flowability test (angle of repose)
Method: A flowability determination method was as follows: an angle of repose was determined by using a device composed of 2 to 3 funnels connected in series in a staggered manner, and drug powder was slowly and uniformly passed through the funnels onto a stationary base with a diameter d, so as to form a symmetric powder pile with a single layer of powder at the bottom. During the formation of the powder pile, a height of the funnels was maintained within 2-4 cm from a top of the powder pile, a height h of the cone was determined, and the angle of repose was calculated as tanθ=h/(d/2).

[3] = Accelerated test, related substances by HPLC; details: 40°C±2°C, 75%RH±5%RH; for Impurity content RRT0.55 / Impurity content RRT0.66 / Impurity content RRT0.71 / Impurity content RRT0.94 / Impurity content RRT1.02 / Impurity content RRT1.06 / Impurity content RRT1.08 / Impurity content RRT1.15 / Total impurities: open
Method: An investigation method for the accelerated test can be seen in Table 14 below.
Change results of related substances in each crystal form under the accelerated condition (40°C±2°C, 75%RH±5%RH) can be seen in Table 18.
HPLC detection results of related substances under the accelerated condition can be seen as follows: Table 18

[4] = Light exposure test, related substances by HPLC; details: for Impurity content RRT0.55 / Impurity content RRT0.66 / Impurity content RRT0.71 / Impurity content RRT0.94 / Impurity content RRT1.02 / Impurity content RRT1.06 / Impurity content RRT1.08 / Impurity content RRT1.15 / Total impurities: 4500lx±500lx, open
Excerpt: An investigation method for the light exposure test can be seen in Table 13 below.
Results of related substances in each crystal form under the light exposure condition (4500lx±500lx) can be seen in Table 17.
HPLC detection results of related substances under the light exposure condition can be seen as follows: Table 17

[5] = High-humidity test, related substances by HPLC; details: 90%RH±5%RH; for Impurity content RRT0.55 / Impurity content RRT0.66 / Impurity content RRT0.71 / Impurity content RRT0.94 / Impurity content RRT1.02 / Impurity content RRT1.06 / Impurity content RRT1.08 / Impurity content RRT1.15 / Total impurities: open
Excerpt: An investigation method for the high-humidity test can be seen in Table 12 below.
Results of related substances in each crystal form under the high-humidity condition (90%RH±5%RH) can be seen in Table 16.
HPLC detection results of related substances under the high-humidity condition can be seen as follows: Table 16

With `C[C@@H](Nc1ccn2ncc(C3=NOC(C)(C)N3)c2n1)c1cc(F)cc(F)c1F` [crystal form A] the “Hygroscopicity (conclusion)” value [1] was “did not have hygroscopicity under conventional conditions”, the DVS weight loss ([1]; at 0% humidity, 25°C) was 3-4% and the DVS hygroscopicity ([1]; humidity 90% or more) was “obvious hygroscopicity”. For the same compound, the DVS weight gain ([1]; humidity increased from 0% to 20%) was “significant weight gain”, the “DVS hygroscopic weight gain” value ([1]; humidity increased from 20% to 80%) was “almost no hygroscopic weight gain” and the angle of repose [2] was “approximately 32.7 °”. For the same compound, the “Increase of impurity RRT1.08 content” value ([3]; 32 days) was 0.04%, the “Impurity content RRT0.55” value ([3]; 0 day) was 0.03% and the “Impurity content RRT0.66” value ([3]; 0 day) was 0.18%. The “Impurity content RRT0.71” value ([3]; 0 day) was 0.15%, the “Impurity content RRT0.94” value ([3]; 0 day) was 0.04% and the “Impurity content RRT1.02” value ([3]; 0 day) was 0.28%. The “Impurity content RRT1.06” value ([3]; 0 day) was 0.07%, the “Impurity content RRT1.08” value ([3]; 0 day) was 0.16% and the “Impurity content RRT1.15” value ([3]; 0 day) was 0.03%. The Total impurities ([3]; 0 day) was 0.95%, the “Impurity content RRT0.55” value ([3]; 5 days) was 0.03% and the “Impurity content RRT0.66” value ([3]; 5 days) was 0.20%. For the same compound, the “Impurity content RRT0.71” value ([3]; 5 days) was 0.16%, the “Impurity content RRT0.94” value ([3]; 5 days) was 0.04% and the “Impurity content RRT1.02” value ([3]; 5 days) was 0.30%. For the same compound, the “Impurity content RRT1.06” value ([3]; 5 days) was 0.08%, the “Impurity content RRT1.08” value ([3]; 5 days) was 0.18% and the “Impurity content RRT1.15” value ([3]; 5 days) was 0.03%. The Total impurities ([3]; 5 days) was 1.02%, the “Impurity content RRT0.55” value ([3]; 11 days) was 0.04% and the “Impurity content RRT0.66” value ([3]; 11 days) was 0.20%. For the same compound, the “Impurity content RRT0.71” value ([3]; 11 days) was 0.17%, the “Impurity content RRT0.94” value ([3]; 11 days) was 0.03% and the “Impurity content RRT1.02” value ([3]; 11 days) was 0.33%. For the same compound, the “Impurity content RRT1.06” value ([3]; 11 days) was 0.09%, the “Impurity content RRT1.08” value ([3]; 11 days) was 0.25% and the “Impurity content RRT1.15” value ([3]; 11 days) was 0.04%. The Total impurities ([3]; 11 days) was 1.14%, the “Impurity content RRT0.55” value ([3]; 32 days) was 0.04% and the “Impurity content RRT0.66” value ([3]; 32 days) was 0.20%. The “Impurity content RRT0.71” value ([3]; 32 days) was 0.16%, the “Impurity content RRT0.94” value ([3]; 32 days) was 0.04% and the “Impurity content RRT1.02” value ([3]; 32 days) was 0.27%. For the same compound, the “Impurity content RRT1.06” value ([3]; 32 days) was 0.07%, the “Impurity content RRT1.08” value ([3]; 32 days) was 0.20% and the “Impurity content RRT1.15” value ([3]; 32 days) was 0.06%. The Total impurities ([3]; 32 days) was 1.03%, the “Increase of impurity RRT0.66 content” value ([4]; 4500 lx±500 lx, 32 days) was 0.09% and the “Increase of impurity RRT0.71 content” value ([4]; 4500 lx±500 lx, 32 days) was “not increased”. For the same compound, the “Increase of impurity RRT1.02 content” value ([4]; 4500 lx±500 lx, 32 days) was “not increased”, the “Increase of impurity RRT1.08 content” value ([4]; 4500 lx±500 lx, 32 days) was 0.09% and the “Increase of total impurities” value ([4]; 4500 lx±500 lx, 32 days) was 0.13%. The “Impurity content RRT0.55” value ([4]; 0 day) was 0.03%, the “Impurity content RRT0.66” value ([4]; 0 day) was 0.18% and the “Impurity content RRT0.71” value ([4]; 0 day) was 0.15%. The “Impurity content RRT0.94” value ([4]; 0 day) was 0.04%, the “Impurity content RRT1.02” value ([4]; 0 day) was 0.28% and the “Impurity content RRT1.06” value ([4]; 0 day) was 0.07%. For the same compound, the “Impurity content RRT1.08” value ([4]; 0 day) was 0.16%, the “Impurity content RRT1.15” value ([4]; 0 day) was 0.03% and the Total impurities ([4]; 0 day) was 0.95%. The “Impurity content RRT0.55” value ([4]; 5 days) was 0.03%, the “Impurity content RRT0.66” value ([4]; 5 days) was 0.21% and the “Impurity content RRT0.71” value ([4]; 5 days) was 0.14%. The “Impurity content RRT0.94” value ([4]; 5 days) was 0.04%, the “Impurity content RRT1.02” value ([4]; 5 days) was 0.30% and the “Impurity content RRT1.06” value ([4]; 5 days) was 0.08%. For the same compound, the “Impurity content RRT1.08” value ([4]; 5 days) was 0.20%, the “Impurity content RRT1.15” value ([4]; 5 days) was 0.04% and the Total impurities ([4]; 5 days) was 1.03%. For the same compound, the “Impurity content RRT0.55” value ([4]; 11 days) was 0.03%, the “Impurity content RRT0.66” value ([4]; 11 days) was 0.22% and the “Impurity content RRT0.71” value ([4]; 11 days) was 0.15%. The “Impurity content RRT0.94” value ([4]; 11 days) was 0.03%, the “Impurity content RRT1.02” value ([4]; 11 days) was 0.31% and the “Impurity content RRT1.06” value ([4]; 11 days) was 0.07%. For the same compound, the “Impurity content RRT1.08” value ([4]; 11 days) was 0.22%, the “Impurity content RRT1.15” value ([4]; 11 days) was 0.04% and the Total impurities ([4]; 11 days) was 1.08%. For the same compound, the “Impurity content RRT0.55” value ([4]; 32 days) was 0.03%, the “Impurity content RRT0.66” value ([4]; 32 days) was 0.27% and the “Impurity content RRT0.71” value ([4]; 32 days) was 0.10%. For the same compound, the “Impurity content RRT0.94” value ([4]; 32 days) was 0.07%, the “Impurity content RRT1.02” value ([4]; 32 days) was 0.28% and the “Impurity content RRT1.06” value ([4]; 32 days) was 0.06%. For the same compound, the “Impurity content RRT1.08” value ([4]; 32 days) was 0.25%, the “Impurity content RRT1.15” value ([4]; 32 days) was 0.02% and the Total impurities ([4]; 32 days) was 1.08%. For the same compound, the “Increase of impurity RRT1.02 content” value ([5]; 32 days) was “no essential changes”, the “Increase of impurity RRT1.08 content” value ([5]; 32 days) was “no essential change” and the “Increase of total impurities” value ([5]; 32 days) was 0.03%. The “Impurity content RRT0.55” value ([5]; 0 day) was 0.03%, the “Impurity content RRT0.66” value ([5]; 0 day) was 0.18% and the “Impurity content RRT0.71” value ([5]; 0 day) was 0.15%. For the same compound, the “Impurity content RRT0.94” value ([5]; 0 day) was 0.04%, the “Impurity content RRT1.02” value ([5]; 0 day) was 0.28% and the “Impurity content RRT1.06” value ([5]; 0 day) was 0.07%. The “Impurity content RRT1.08” value ([5]; 0 day) was 0.16%, the “Impurity content RRT1.15” value ([5]; 0 day) was 0.03% and the Total impurities ([5]; 0 day) was 0.95%. For the same compound, the “Impurity content RRT0.55” value ([5]; 5 days) was 0.03%, the “Impurity content RRT0.66” value ([5]; 5 days) was 0.20% and the “Impurity content RRT0.71” value ([5]; 5 days) was 0.16%. For the same compound, the “Impurity content RRT0.94” value ([5]; 5 days) was 0.03%, the “Impurity content RRT1.02” value ([5]; 5 days) was 0.31% and the “Impurity content RRT1.06” value ([5]; 5 days) was 0.09%. The “Impurity content RRT1.08” value ([5]; 5 days) was 0.21%, the “Impurity content RRT1.15” value ([5]; 5 days) was 0.04% and the Total impurities ([5]; 5 days) was 1.07%. The “Impurity content RRT0.55” value ([5]; 11 days) was 0.03%, the “Impurity content RRT0.66” value ([5]; 11 days) was 0.20% and the “Impurity content RRT0.71” value ([5]; 11 days) was 0.16%. For the same compound, the “Impurity content RRT0.94” value ([5]; 11 days) was 0.03%, the “Impurity content RRT1.02” value ([5]; 11 days) was 0.30% and the “Impurity content RRT1.06” value ([5]; 11 days) was 0.08%. The “Impurity content RRT1.08” value ([5]; 11 days) was 0.21%, the “Impurity content RRT1.15” value ([5]; 11 days) was 0.03% and the Total impurities ([5]; 11 days) was 1.05%. For the same compound, the “Impurity content RRT0.55” value ([5]; 32 days) was 0.03%, the “Impurity content RRT0.66” value ([5]; 32 days) was 0.18% and the “Impurity content RRT0.71” value ([5]; 32 days) was 0.16%. The “Impurity content RRT0.94” value ([5]; 32 days) was 0.05%, the “Impurity content RRT1.02” value ([5]; 32 days) was 0.26% and the “Impurity content RRT1.06” value ([5]; 32 days) was 0.06%. For the same compound, the “Impurity content RRT1.08” value ([5]; 32 days) was 0.18%, the “Impurity content RRT1.15” value ([5]; 32 days) was 0.05% and the Total impurities ([5]; 32 days) was 0.98%.
